In patent publication US9969744B2, “Compounds for use in cognition improvement” (FUNDACIÓN PARA LA INVESTIGACIÓN MÉDICA APLICADA, priority 2014, dated 2018):

Experiments:
[1] = system: acetylated histone 3 at Lys9 (AcH3K9); test: HDAC activity using SHSY-5Y cell line (Western blot, histone 3 acetylation); type: cell-based, human; design: key: basal x1 means no increment (+); basal x1.4≤(++)<basal x2; basal x2≤(+++)<basal x3; basal x3≤(++++); N.E. means No Effect; settings: SHSY-5Y cells, 24 hours
Experimental: HDAC inhibition leads to the corresponding functional response, increase in AcH3 level. Therefore, the cellular assay to conclude HDAC activity was assessed by Western blot analysis using specific antibodies against acetylated histone 3 at Lys9 (AcH3K9). Cell cultures were treated at 100 nM, 500 nM, 1 μM and/or 5 μM with compounds of the invention or known PDE inhibitors during 24 hours and, Table 1 (below) describes the functional activity: histone 3 acetylation level (AcH3) vs basal (no treatment).
A human neuroblastoma cell line (SHSY-5Y) was used. Cell line was obtained from ATCC (CRL-2266) and cultured in 35 mm plates (Becton Dickinson, NJ).
The cells were grown to 90% confluence at 37° C. in an atmosphere of 5% CO2 and in Dulbecco's modified Eagle's medium supplemented with Glutamax (Gibco, Invitrogen, CA), 100 units/ml penicillin/streptomycin, 1×MEM nonessential amino acids and 10% fetal bovine serum (Gibco, Invitrogen, CA).
Cells were collected and sonicated in a buffer containing a cold lysis buffer with protease inhibitors (0.2 M NaCl, 0.1 M HEPES (4-(2-hydroxyethyl)-1-piperazineethanesulfonic acid), 10% glycerol, 200 mM NaF, 2 mM Na4P2O7, 5 mM EDTA (ethylenediaminetetraacetic acid), 1 mM EGTA (ethylene glycol tetraacetic acid), 2 mM DTT (dithiothreitol), 0.5 mM PMSF (phenylmethylsulfonyl fluoride), 1 mM Na3VO4 and Complete Protease Inhibitor Cocktail, Roche Diagnostics), centrifuged at 14,000×g 4° C. for 20 min and the supernatant was aliquoted and stored at −80° C. Total protein concentrations were determined using the BioRad Bradford protein assay (BioRad Laboratories).
Protein samples were mixed with Laemmli sample buffer, resolved onto Sodium Dodecyl Sulfate (SDS)-polyacrylamide gels and transferred to nitrocellulose membrane. The membranes were blocked with 5% milk, 0.05% Tween-20 in PBS (Phosphate-Buffered Saline) or TBS (Tris-Buffered Saline) followed by overnight incubation with the following primary antibodies: rabbit polyclonal anti-acetylated Histone 3 (acetyl K9) (Cell Signalling Technology), rabbit polyclonal anti-total Histone 3 (Millipore), in the corresponding buffer. All the antibodies were used at 1:1000 dilution except the mouse monoclonal anti-β-actin which was used at 1:50.000. Following two washes in TBS/Tween20 and one wash in TBS alone, immunolabeled protein bands were detected by using HRP-conjugated anti-rabbit or anti-mouse antibody (Santa Cruz Biotechnology; dilution 1:5.000) following an enhanced chemiluminescence system (ECL, GE Healthcare Bioscience, Buckinghamshire, UK), and autoradiographic exposure to HyperfilmtECL (GE Healthcare Bioscience). Quantity One™ software v.4.6.3 (Bio-Rad) was used for quantification.

[2] = target: T1, PDE5A1 (Homo sapiens, UniProt O76074); test: PDE enzyme activity assay (HTRF cGMP), PDE5A; type: biochemical; settings: recombinant enzyme; read-out: PDE5A1 inhibition (IC50)
T1 construct: they are full-length with N-terminal GST tag; GST (N); purchased BPS Biosciences 60050; host or cells: baculovirus infected Sf9 cells

[3] = target: T2, PDE9A (Homo sapiens, UniProt O76083); test: PDE enzyme activity assay (HTRF cGMP), PDE9A; type: biochemical; settings: recombinant enzyme; read-out: PDE9A inhibition (IC50)
T2 construct: they are full-length with N-terminal GST tag; GST (N); purchased BPS Biosciences 60090; host or cells: baculovirus infected Sf9 cells
T2 sequence (O76083 1-533 isoform O76083-2): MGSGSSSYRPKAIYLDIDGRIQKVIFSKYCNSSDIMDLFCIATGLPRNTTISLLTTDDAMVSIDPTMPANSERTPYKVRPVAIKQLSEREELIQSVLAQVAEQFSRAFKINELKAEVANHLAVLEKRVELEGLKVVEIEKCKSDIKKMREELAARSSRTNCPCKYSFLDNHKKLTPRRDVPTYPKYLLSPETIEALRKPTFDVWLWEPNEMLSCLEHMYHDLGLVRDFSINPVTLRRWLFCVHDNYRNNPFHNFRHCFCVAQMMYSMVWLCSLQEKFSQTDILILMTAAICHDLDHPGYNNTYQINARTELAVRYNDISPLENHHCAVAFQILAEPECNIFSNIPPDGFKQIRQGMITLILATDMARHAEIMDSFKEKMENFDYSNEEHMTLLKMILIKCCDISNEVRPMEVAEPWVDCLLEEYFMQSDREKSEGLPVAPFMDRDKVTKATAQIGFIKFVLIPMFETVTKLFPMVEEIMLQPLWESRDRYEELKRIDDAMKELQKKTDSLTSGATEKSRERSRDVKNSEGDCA

[4] = system: AcH3; test: In-vivo AcH3 in hippocampus of wild type mice; settings: single dose of 12.5 mg/Kg i.p.
Experimental: (§1) Another group of animals received the vehicle (1/1/8, v:v:v, DMSO/Tween 20/saline). One hour later, mice were sacrificed by cervical dislocation and their hippocampus was quickly dissected from the brains. Total tissue homogenates were obtained by homogenizing the hippocampus in a cold lysis buffer with protease inhibitors (0.2 M NaCl, 0.1 M HEPES, 10% glycerol, 200 mM NaF, 2 mM Na4P2O7, 5 mM EDTA, 1 mM EGTA, 2 mM DTT, 0.5 mM PMSF, 1 mM Na3VO4 and Complete Protease Inhibitor Cocktail, Roche Diagnostics). The homogenate was then centrifuged at 14,000×g at 4° C. for 20 min and the supernatant aliquoted and stored at −80° C. Total protein concentrations were determined using the BioRad Bradford protein assay (BioRad Laboratories). Protein samples were analyzed as described in the “in vitro” section.

[5] = system: pCREB; test: In-vivo pCREB in hippocampus of wild type mice; design: key: basal x1 means no increment (+); basal x1.4≤(++)<basal x2; basal x2≤(+++)<basal x3; basal x3≤(++++); N.E. means No Effect; settings: single dose of 12.5 mg/Kg i.p.
Experimental: as §1

Compound	IC50 [2] [nM]	IC50 [3] [nM]	AcH3: increment in Histone 3 acetylation level vs basal ([1]; compound concentration 1 μM)	AcH3: increment in Histone 3 acetylation level vs basal ([1]; compound concentration 5 μM)	AcH3 increment vs basal [4]	pCREB increment vs basal [5]
CCCc1nn(C)c2c(=O)[nH]c(-c3cc(Cc4ccc(C(=O)N5CCNC(=O)C5)cc4)ccc3OCC)nc12 [Example 1-19]	10 to 1000	–	++ (basal x1.4≤(++)<basal x2)	–	–	–
CCCc1nn(C)c2c(=O)[nH]c(-c3cc(S(=O)(=O)NCc4ccc(C(=O)Nc5ccccc5N)cc4)ccc3OCC)nc12 [Example 1-03]	10 to 1000	–	++++ (basal x3≤(++++))	–	–	–
CCCc1nn(C)c2c(=O)[nH]c(-c3cc(CC(=O)Nc4ccccn4)ccc3OCC)nc12 [Example 1-15, 2-[4-ethoxy-3-(1-methyl-7-oxo-3-propyl-6H-pyrazolo[4,3-d]pyrimidin-5-yl)phenyl]-N-(2-pyridyl)acetamide]	10 to 1000	–	++ (basal x1.4≤(++)<basal x2)	–	–	–
CCCc1nn(C)c2c(=O)[nH]c(-c3cc(Cc4ccc(C(=O)Nc5cscc5N)cc4)ccc3OCC)nc12 [Example 1-20]	1000 to 10000	–	++ (basal x1.4≤(++)<basal x2)	–	–	–
CCCc1nn(C)c2c(=O)[nH]c(-c3cc(CC4CC(C(=O)Nc5ccccc5N)C4)ccc3OCC)nc12 (racemic) [Example 1-04, N-(2-aminophenyl)-3-[[4-ethoxy-3-(1-methyl-7-oxo-3-propyl-6H-pyrazolo[4,3-d]pyrimidin-5-yl)phenyl]methyl]cyclobutanecarboxamide]	10 to 1000	–	++++ (basal x3≤(++++))	–	–	–
CCCc1nn(C)c2c(=O)[nH]c(-c3cc(S(=O)(=O)N4CCN(c5ncc(C(=O)Nc6ccccc6N)cn5)CC4)ccc3OCC)nc12 [Example 1-01, N-(2-aminophenyl)-2-[4-[4-ethoxy-3-(1-methyl-7-oxo-3-propyl-6H-pyrazolo[4,3-d]pyrimidin-5-yl)phenyl]sulfonylpiperazin-1-yl]pyrimidine-5-carboxamide]	10 to 1000	–	+++ (basal x2≤(+++)<basal x3)	–	–	–
CCCc1nn(C)c2c(=O)[nH]c(-c3cc(C4CCC(C(=O)Nc5ccccc5N)CC4)ccc3OCC)nc12 (racemic) [Example 1-05, N-(2-aminophenyl)-4-[4-ethoxy-3-(1-methyl-7-oxo-3-propyl-6H-pyrazolo[4,3-d]pyrimidin-5-yl)phenyl]cyclohexanecarboxamide]	10 to 1000	–	+++ (basal x2≤(+++)<basal x3)	–	–	–
CCCc1nn(C)c2c(=O)[nH]c(-c3cc(Cc4ccc(C(=O)Nc5cc(-c6cccs6)ccc5N)cc4)ccc3OCC)nc12 [Example 1-13, N-[2-amino-5-(2-thienyl)phenyl]-4-[[4-ethoxy-3-(1-methyl-7-oxo-3-propyl-6H-pyrazolo[4,3-d]pyrimidin-5-yl)phenyl]methyl]benzamide]	1000 to 10000	–	++ (basal x1.4≤(++)<basal x2)	–	–	–
CCCc1nn(C)c2c(=O)[nH]c(-c3cc(C4CCC(C(=O)Nc5ccccc5N)CC4)ccc3OCC)nc12 (stereo not shown) [Example 1-06, N-(2-aminophenyl)-4-[4-ethoxy-3-(1-methyl-7-oxo-3-propyl-6H-pyrazolo[4,3-d]pyrimidin-5-yl)phenyl]cyclohexanecarboxamide]	10 to 1000	–	+++ (basal x2≤(+++)<basal x3)	–	–	–
CCCc1nn(C)c2c(=O)[nH]c(-c3cc(S(=O)(=O)N4CCN(C)CC4)ccc3OCC)nc12 [Sildenafil, reference compound]	–	–	N.E.	–	–	–
O=C(CCCCCCC(=O)Nc1ccccc1)NO [Vorinostat]	> 10000	> 10000	++++ (basal x3≤(++++))	–	+++ (basal x2≤(+++)<basal x3)	N.E.
CCCc1nn(C)c2c(=O)[nH]c(-c3cc(Cc4ccc(C(=O)Nc5ccccc5N)s4)ccc3OCC)nc12 [Example 1-08]	10 to 1000	–	++++ (basal x3≤(++++))	–	–	–
CCCc1nn(C)c2c(=O)[nH]c(-c3cc(S(=O)(=O)NC4CCN(c5ncc(C(=O)Nc6ccccc6N)cn5)CC4)ccc3OCC)nc12 [Example 1-02]	10 to 1000	–	+++ (basal x2≤(+++)<basal x3)	–	–	–

Continued, in another order:

IC50 [2] [nM]	IC50 [3] [nM]	Compound	AcH3: increment in Histone 3 acetylation level vs basal ([1]; compound concentration 1 μM)	AcH3: increment in Histone 3 acetylation level vs basal ([1]; compound concentration 5 μM)	AcH3 increment vs basal [4]	pCREB increment vs basal [5]
–	10 to 1000	C[C@@H]1CN(Cc2ccc(C(=O)Nc3ccccc3N)cc2)C[C@H]1c1nc2c(cnn2C2CCCC2)c(=O)[nH]1 (racemic) [Example 3-01, N-(2-aminophenyl)-4-[[(3S,4S)-3-(1-cyclopentyl-4-oxo-5H-pyrazolo[3,4-d]pyrimidin-6-yl)-4-methyl-pyrrolidin-1-yl]methyl] benzamide]	++ (basal x1.4≤(++)<basal x2)	–	–	–
10 to 1000	–	CCCc1nc(C)c2c(=O)[nH]c(-c3cc(Cc4ccc(C(=O)Nc5cscc5N)cc4)ccc3OCC)nn12 [Example 2-07, N-(4-amino-3-thienyl)-4-[[4-ethoxy-3-(5-methyl-4-oxo-7-propyl-3H-imidazo[5,1-f][1,2,4]triazin-2-yl)phenyl]methyl]benzamide]	++ (basal x1.4≤(++)<basal x2)	–	–	–
1000 to 10000	–	Nc1ccccc1NC(=O)c1cnc(N2CCC(CN3CC(=O)N4C(Cc5c([nH]c6ccccc56)C4c4ccc5c(c4)OCO5)C3=O)CC2)nc1 (racemic) [Example 4-01, N-(2-aminophenyl)-2-(4-((6-(benzo[d][1,3]dioxol-5-yl)-1,4-dioxo-3,4,6,7,12,12a-hexahydropyrazino[1′,2′:1,6]pyrido[3,4-b]indol-2(1H)-yl)methyl)piperidin-1-yl)pyrimidine-5-carboxamide]	–	++ (basal x1.4≤(++)<basal x2)	–	–
< 10	–	CCCc1nc(C)c2c(=O)[nH]c(-c3cc(S(=O)(=O)N4CCN(c5ncc(C(=O)Nc6ccccc6N)cn5)CC4)ccc3OCC)nn12 [Example 2-02, N-(2-aminophenyl)-2-[4-[4-ethoxy-3-(5-methyl-4-oxo-7-propyl-3H-imidazo[5,1-f][1,2,4]triazin-2-yl)phenyl]sulfonylpiperazin-1-yl]pyrimidine-5-carboxamide]	++++ (basal x3≤(++++))	–	–	–
< 10	–	CCCc1nc(C)c2c(=O)[nH]c(-c3cc(S(=O)(=O)NC4CCN(c5ncc(C(=O)Nc6ccccc6N)cn5)CC4)ccc3OCC)nn12 [Example 2-03]	++ (basal x1.4≤(++)<basal x2)	–	–	–
< 10	–	CCCc1nc(C)c2c(=O)[nH]c(-c3cc(CC4CC(C(=O)Nc5ccccc5N)C4)ccc3OCC)nn12 (racemic) [Example 2-04, N-(2-aminophenyl)-3-[[4-ethoxy-3-(5-methyl-4-oxo-7-propyl-3H-imidazo[5,1-f][1,2,4]triazin-2-yl)phenyl]methyl]cyclobutanecarboxamide]	++++ (basal x3≤(++++))	–	–	–
